Measured values: PMC6222847, “Application of HPCCC Combined with Polymeric Resins and HPLC for the Separation of Cyclic Lipopeptides Muscotoxins A–C and Their Antimicrobial Activity” (Molecules : A Journal of Synthetic Chemistry and Natural …, 2018)
In brackets after ≈: the same amount, converted by molar mass. *1 amine or outer side, *2 acyl side, *3 side chain or, on linkers, in order; H or OH if unused. Where a SMILES comes first, the peptide text is derived from it. [ ]: non-standard residue; d: D form. X1 = CCCCCC(O)CC(N[*:1])C(O)C(=O)[*:2]; d(aIle) = CC[C@H](C)[C@@H](N)C(=O)O; Dhb = C/C=C(\N)C(=O)O

Assays:
Test in all cases: microbe, parasite or virus in culture
Type in all cases: cell-based
Fusarium oxysporum = system: Fusarium oxysporum
Protocol: (§1) Furthermore, compound 1 was evaluated for its antimicrobial activity against five bacterial isolates; S. aureus (CCM3824), B. subtilis (CCM1999), S. sanguinis (CCM4047), P. aeruginosa (CCM1959), E. coli (CCM2024), and eight fungal isolates; C. friedrichii (BCC020_2879), A. fumigatus (BCC020_2845), F. oxysporum (BCC020_2866), T. harzianum (BCC020_0606), B. sorokiniana (BCC020_1571), M. cucumerina (BCC020_2872), C. globosum (BCC020_2527), and A. alternata (BCC020_0609) using broth two-fold microdilution method following the standard protocol. Briefly, for broth microdilution method, the compounds were serially diluted at varying concentrations between 300 and 0.0732 µg/mL in Mueller Hinton broth (for bacteria) and Muller Hinton broth with 2% glucose (for fungi) in 96-well plates. Culture broth (0.1 mL) was added to each well containing the compound. Plates were incubated aerobically at 37 °C for 16 h (bacteria) and 30 °C for 48 h (for fungi). Negative controls were prepared separately with respective organisms in the same culture media with methanol (the dissolving solvent). Positive controls were also prepared separately with respective organisms. Erythromycin (32–0.0625 µg/mL) was used as positive control for S. aureus and S. sanguinis, gentamycin (32–0.0625 µg/mL) was used as positive control for Bacillus subtilis, E. coli, and P. aeruginosa, whereas fluconazole (32–0.0625 µg/mL) was used as positive control for all the fungal isolates. After incubation, the well with the least concentration of the compound showing any inhibition in the growth was taken as the MIC value for the respective organisms. MIC95 was determined as the concentration required to inhibit or kill 95% of bacterial isolates spectroscopically at 600 nm. Minimum fungicidal concentration (MFCs) were determined after 48 h incubation by removing 10 µL of the contents from wells showing no visible growth and spreading them on to Sabouraud dextrose agar plates. The plates were then incubated for 72 h and MFCs were determined as the concentrations which killed 95–100% of the inoculum. All the experiments were done in triplicate.

Candida friedrichii = system: Candida friedrichii
Protocol: as §1

Monographella cucumerina = system: Monographella cucumerina
Protocol: as §1

Chaetomium globosum = system: Chaetomium globosum
Protocol: as §1

C/C=C1\NC(=O)[C@H](CO)NC(=O)[C@@H]([C@@H](C)CC)NC(=O)[C@H](Cc2ccccc2)NC(=O)[C@@H]2CCCN2C(=O)CNC(=O)[C@@H](CCC(N)=O)NC(=O)C(O)C(CC(O)CCCCC)NC(=O)[C@@H]2CCCN2C(=O)[C@@H]([C@@H](C)CC)NC(=O)[C@H](CO)NC1=O (some centres unmarked) [compound 2, muscotoxin A] (cyclo([Dhb]S[d(aIle)]P[X1][dQ]GPF[d(aIle)]S))
MIC (Fusarium oxysporum; F. oxysporum BCC020_2866, Muller Hinton broth with 2% glucose, 300–0.0732 µg/mL (control 32–0.0625), 30 °C 48 h, triplicate, least concentration showing any inhibition): 75 µg/mL (≈ 61.9 µM) | MFC (Fusarium oxysporum; F. oxysporum, 10 µL from wells without visible growth after 48 h spread on Sabouraud dextrose agar, 72 h, kills 95–100% of the inoculum): <300 µg/mL | MIC (Candida friedrichii; C. friedrichii BCC020_2879, Muller Hinton broth with 2% glucose, 300–0.0732 µg/mL (control 32–0.0625), 30 °C 48 h, triplicate, least concentration showing any inhibition): 75 µg/mL (≈ 61.9 µM) | MFC (Candida friedrichii; C. friedrichii, 10 µL from wells without visible growth after 48 h spread on Sabouraud dextrose agar, 72 h, kills 95–100% of the inoculum): <300 µg/mL | MIC (Monographella cucumerina; M. cucumerina BCC020_2872, Muller Hinton broth with 2% glucose, 300–0.0732 µg/mL (control 32–0.0625), 30 °C 48 h, triplicate, least concentration showing any inhibition): 2.34 µg/mL (≈ 1.93 µM) | MFC (Monographella cucumerina; M. cucumerina, 10 µL from wells without visible growth after 48 h spread on Sabouraud dextrose agar, 72 h, kills 95–100% of the inoculum): 75 µg/mL (≈ 61.9 µM) | MIC (Chaetomium globosum; C. globosum BCC020_2527, Muller Hinton broth with 2% glucose, 300–0.0732 µg/mL (control 32–0.0625), 30 °C 48 h, triplicate, least concentration showing any inhibition): 18.75 µg/mL (≈ 15.5 µM) | MFC (Chaetomium globosum; C. globosum, 10 µL from wells without visible growth after 48 h spread on Sabouraud dextrose agar, 72 h, kills 95–100% of the inoculum): <300 µg/mL
